For test [1], the target named is BTK (Homo sapiens, UniProt Q06187). Kind of test: Degradation of BTK protein in Namalwa cells (Western blot; DC50, Dmax). Particulars: for DC50: read-out: DC50 (BTK degradation), concentration giving 50% reduction of BTK expression level, cell line not given; for Dmax: read-out: Dmax (BTK degradation); for degradation of BTK protein: Namalwa B lymphocyte cells, various concentrations, 24 hours, Western blot.

In test [2] the test system is JeKo-1 cells. Kind of test: Antiproliferative effect, MTS cell viability assay, JeKo-1 cells. Type of test: cell-based. Particulars: Homo sapiens; JeKo-1 mantle cell lymphoma cells; read-out: IC50 (anti-proliferation) JeKO-1 cells. The method, boiled down: (§1)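 Cells were exposed to compound at 0, 0.001, 0.01, 0.1, 1 and 10 μM for 72 h. Viability was then measured by MTS assay, reading formazan produced by metabolically active cells as absorbance at 490 nm.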

The subject of test [3] is Mino cells. Kind of test: Antiproliferative effect, MTS cell viability assay, Mino cells. The class given is cell-based. Particulars: Homo sapiens, MINO, Mino mantle cell lymphoma cells; read-out: IC50 (anti-proliferation) Mino cells. The method, boiled down: as §1

The structures appear in SMILES notation. A value given as a limit tells only on which side of the number the result lay.

BTK, sequence (Q06187 whole entry): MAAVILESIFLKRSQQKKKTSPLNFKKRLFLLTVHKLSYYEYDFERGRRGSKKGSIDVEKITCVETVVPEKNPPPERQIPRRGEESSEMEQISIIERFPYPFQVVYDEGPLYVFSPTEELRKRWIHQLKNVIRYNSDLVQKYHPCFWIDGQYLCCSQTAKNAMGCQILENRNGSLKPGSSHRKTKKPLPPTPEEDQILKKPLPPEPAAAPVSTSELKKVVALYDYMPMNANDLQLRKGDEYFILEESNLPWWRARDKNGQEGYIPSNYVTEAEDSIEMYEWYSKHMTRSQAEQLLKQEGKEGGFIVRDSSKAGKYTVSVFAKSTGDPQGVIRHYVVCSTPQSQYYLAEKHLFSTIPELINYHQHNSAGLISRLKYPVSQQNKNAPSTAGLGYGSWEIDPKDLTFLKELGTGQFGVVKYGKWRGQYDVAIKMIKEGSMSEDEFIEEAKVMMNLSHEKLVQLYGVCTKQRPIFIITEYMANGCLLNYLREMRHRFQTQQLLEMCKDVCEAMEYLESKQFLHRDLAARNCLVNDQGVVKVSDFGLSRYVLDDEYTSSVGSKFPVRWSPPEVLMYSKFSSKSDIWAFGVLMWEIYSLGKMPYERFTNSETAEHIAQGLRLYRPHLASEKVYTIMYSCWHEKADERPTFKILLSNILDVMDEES

On to `Nc1ncnc2c1c(-c1ccc(Oc3ccccc3)cc1)nn2C1CCN(C2CCN(CC3CN(c4ccc5c(c4)CN(C4CCC(=O)NC4=O)C5=O)C3)C2)CC1` (centres unmarked) [Compound 426, 3-(5-(3-((3-(4-(4-amino-3-(4-phenoxyphenyl)-1H-pyrazolo[3,4-d]pyrimidin-1-yl)piperidin-1-yl)pyrrolidin-1-yl)methyl)azetidin-1-yl)-1-oxoisoindolin-2-yl)piperidine-2,6-dione], for which the DC50 in test [1] fell in the range of 10 to 50 nM. For the same molecule, the Dmax in test [1] is over 90%. In addition, the IC50 in test [2] and in test [3] was under 1000 nM each time.

For the molecule `Nc1ncnc2c1c(-c1ccc(Oc3ccccc3)cc1)nn2C1CCN(CC2CCN(CC3CN(CC4CN(c5ccc6c(c5)C(=O)N(C5CCC(=O)NC5=O)C6=O)C4)C3)C2)CC1` (centres unmarked) [Compound 427, 5-(3-((3-((3-((4-(4-amino-3-(4-phenoxyphenyl)-1H-pyrazolo(3,4-d)pyrimidin-1-yl)piperidin-1-yl)methyl)pyrrolidin-1-yl)methyl)azetidin-1-yl)methyl)azetidin-1-yl)-2-(2,6-dioxopiperidin-3-yl)isoindoline-1,3-dione], in test [1], the “degradation of BTK protein” value is “dose-dependent degradation”, the DC50 is over 50 nM and the Dmax is over 90%. The IC50 in test [2] is 1000 to 10000 nM. The IC50 in test [3] lay in the range of 1000 to 10000 nM.

`Nc1ncnc2c1c(-c1ccc(Oc3ccccc3)cc1)nn2C1CCN(C[C@H]2CCN(CC3CN(CC4CN(c5ccc6c(c5)C(=O)N(C5CCC(=O)NC5=O)C6=O)C4)C3)C2)CC1` (stereo partly drawn) [Compound 427a, 5-(3-((3-(((R)-3-((4-(4-amino-3-(4-phenoxyphenyl)-1H-pyrazolo[3,4-d]pyrimidin-1-yl)piperidin-1-yl)methyl)pyrrolidin-1-yl)methyl)azetidin-1-yl)methyl)azetidin-1-yl)-2-(2,6-dioxopiperidin-3-yl)isoindoline-1,3-dione]: in test [1], the DC50 is over 50 nM and the maximal degradation (Dmax) is over 90%. In addition, in test [2], the IC50 was in the range of 1000 to 10000 nM. In addition, the IC50 in test [3] was in the range of 1000 to 10000 nM.

`Nc1ncnc2c1c(-c1ccc(Oc3ccccc3)cc1)nn2C1CCN(C[C@@H]2CCN(CC3CN(CC4CN(c5ccc6c(c5)C(=O)N(C5CCC(=O)NC5=O)C6=O)C4)C3)C2)CC1` (stereo partly drawn) [Compound 427b, 5-(3-((3-(((S)-3-((4-(4-amino-3-(4-phenoxyphenyl)-1H-pyrazolo[3,4-d]pyrimidin-1-yl)piperidin-1-yl)methyl)pyrrolidin-1-yl)methyl)azetidin-1-yl)methyl)azetidin-1-yl)-2-(2,6-dioxopiperidin-3-yl)isoindoline-1,3-dione]: the DC50 in test [1] is over 50 nM. In test [1], the Dmax was over 90%. Also, the IC50 in test [2] and in test [3] was 1000 to 10000 nM throughout.

Take `Nc1ncnc2c1c(-c1ccc(Oc3ccccc3)cc1)nn2C1CCN(CC2CCN(CC3CN(CC4CN(c5ccc6c(c5)CN(C5CCC(=O)NC5=O)C6=O)C4)C3)C2)CC1` (centres unmarked) [Compound 428, 3-(5-(3-((3-((3-((4-(4-amino-3-(4-phenoxyphenyl)-1H-pyrazolo[3,4-d]pyrimidin-1-yl)piperidin-1-yl)methyl)pyrrolidin-1-yl)methyl)azetidin-1-yl)methyl)azetidin-1-yl)-1-oxoisoindolin-2-yl)piperidine-2,6-dione]: in test [1], the DC50 was in the range of 10 to 50 nM and the Dmax is over 90%. The IC50 in test [2] is 1000 to 10000 nM. The IC50 in test [3] is 1000 to 10000 nM.

For the molecule `Nc1ncnc2c1c(-c1ccc(Oc3ccccc3)cc1)nn2C1CCN(CC2CCN(CC3CN(c4ccc5c(c4)C(=O)N(C4CCC(=O)NC4=O)C5=O)C3)CC2)CC1` (centres unmarked) [Compound 429, 5-(3-((4-((4-(4-amino-3-(4-phenoxyphenyl)-1H-pyrazolo(3,4-d)pyrimidin-1-yl)piperidin-1-yl)methyl)piperidin-1-yl)methyl)azetidin-1-yl)-2-(2,6-dioxopiperidin-3-yl)isoindoline-1,3-dione], in test [1], the 50% degradation concentration (DC50) is 10 to 50 nM and the Dmax was over 90%. For the same molecule, in test [2], the IC50 fell in the range of 1000 to 10000 nM. The IC50 in test [3] was under 1000 nM.

As for `Nc1ncnc2c1c(-c1ccc(Oc3ccccc3)cc1)nn2C1CCN(CC2CCN(CC3CN(c4ccc5c(c4)CN(C4CCC(=O)NC4=O)C5=O)C3)CC2)CC1` (centres unmarked) [Compound 430, 3-(5-(3-((4-((4-(4-amino-3-(4-phenoxyphenyl)-1H-pyrazolo[3,4-d]pyrimidin-1-yl)piperidin-1-yl)methyl)piperidin-1-yl)methyl)azetidin-1-yl)-1-oxoisoindolin-2-yl)piperidine-2,6-dione], in test [1], the DC50 is 10 to 50 nM and the Dmax is over 90%. Moreover, the IC50 in test [2] is under 1000 nM. For the same molecule, the IC50 in test [3] is under 1000 nM.

On to `Nc1ncnc2c1c(-c1ccc(Oc3ccccc3)cc1)nn2C1CCN(CC2CCN(CC3CCN(CC4CN(c5ccc6c(c5)C(=O)N(C5CCC(=O)NC5=O)C6=O)C4)CC3)CC2)CC1` (centres unmarked) [Compound 431, 5-(3-((4-((4-((4-(4-amino-3-(4-phenoxyphenyl)-1H-pyrazolo(3,4-d)pyrimidin-1-yl)piperidin-1-yl)methyl)piperidin-1-yl)methyl)piperidin-1-yl)methyl)azetidin-1-yl)-2-(2,6-dioxopiperidin-3-yl)isoindoline-1,3-dione], for which, in test [1], the “degradation of BTK protein” value is “dose-dependent degradation”, the half-maximal degradation concentration (DC50) was over 50 nM and the Dmax is over 90%. The IC50 in test [2] is under 1000 nM. For the same molecule, the IC50 in test [3] was under 1000 nM.

With `Nc1ncnc2c1c(-c1ccc(Oc3ccccc3)cc1)nn2C1CCN(CC2CCN(CC3CCN(CC4CN(c5ccc6c(c5)CN(C5CCC(=O)NC5=O)C6=O)C4)CC3)CC2)CC1` (centres unmarked) [Compound 432, 3-(5-(3-((4-((4-((4-(4-amino-3-(4-phenoxyphenyl)-1H-pyrazolo[3,4-d]pyrimidin-1-yl)piperidin-1-yl)methyl)piperidin-1-yl)methyl)piperidin-1-yl)methyl)azetidin-1-yl)-1-oxoisindolin-2-yl)piperidine-2,6-dione], in test [1], the 50% degradation concentration (DC50) lay within 10 to 50 nM and the Dmax is over 90%. In addition, the IC50 in test [2] is under 1000 nM. The IC50 in test [3] is under 1000 nM.

For `Nc1ncnc2c1c(-c1ccc(Oc3ccccc3)cc1)nn2C1CCN(C2CCN(CC3CN(c4ccc5c(c4)C(=O)N(C4CCC(=O)NC4=O)C5=O)C3)CC2)CC1` (centres unmarked) [Compound 433, 5-(3-((4-(4-amino-3-(4-phenoxyphenyl)-1H-pyrazolo(3,4-d)pyrimidin-1-yl)-(1,4′-bipiperidin)-1′-yl)methyl)azetidin-1-yl)-2-(2,6-dioxopiperidin-3-yl)isoindoline-1,3-dione], in test [1], the “degradation of BTK protein” value is “dose-dependent degradation”, the half-maximal degradation concentration (DC50) is over 50 nM and the Dmax was over 90%. Further, the IC50 in test [2] was in the range of 1000 to 10000 nM. In addition, the IC50 in test [3] is under 1000 nM.

For `Nc1ncnc2c1c(-c1ccc(Oc3ccccc3)cc1)nn2C1CCN(C2CCN(CC3CN(c4ccc5c(c4)CN(C4CCC(=O)NC4=O)C5=O)C3)CC2)CC1` (centres unmarked) [Compound 434, 3-(5-(3-((4-(4-amino-3-(4-phenoxyphenyl)-1H-pyrazolo[3,4-d]pyrimidin-1-yl)-[1,4′-bipiperidin]-1′-yl)methyl)azetidin-1-yl)-1-oxoisoindolin-2-yl)piperidine-2,6-dione], in test [1], the DC50 lay within 10 to 50 nM and the Dmax is over 90%. Moreover, the IC50 in test [2] was in the range of 1000 to 10000 nM. In addition, in test [3], the IC50 was under 1000 nM.

For the molecule `Nc1ncnc2c1c(-c1ccc(Oc3ccccc3)cc1)nn2C1CCN(C2CCN(CC3CCN(CC4CN(c5ccc6c(c5)C(=O)N(C5CCC(=O)NC5=O)C6=O)C4)CC3)CC2)CC1` (centres unmarked) [Compound 435, 5-(3-((4-((4-(4-amino-3-(4-phenoxyphenyl)-1H-pyrazolo[3,4-d]pyrimidin-1-yl)-[1,4′-bipiperidin]-1′-yl)methyl)piperidin-1-yl)methyl)azetidin-1-yl)-2-(2,6-dioxopiperidin-3-yl)isoindoline-1,3-dione], in test [1], the “degradation of BTK protein” value was “dose-dependent degradation”, the half-maximal degradation concentration (DC50) is under 10 nM and the Dmax is over 90%. In addition, the IC50 in test [2] fell in the range of 1000 to 10000 nM. For the same molecule, in test [3], the IC50 was under 1000 nM.

For the molecule `Nc1ncnc2c1c(-c1ccc(Oc3ccccc3)cc1)nn2C1CCN(C2CCN(CC3CCN(CC4CN(c5ccc6c(c5)CN(C5CCC(=O)NC5=O)C6=O)C4)CC3)CC2)CC1` (centres unmarked) [Compound 436, 3-(5-(3-((4-((4-(4-amino-3-(4-phenoxyphenyl)-1H-pyrazolo[3,4-d]pyrimidin-1-yl)-[1,4′-bipiperidin]-1′-yl)methyl)piperidin-1-yl)methyl)azetidin-1-yl)-1-oxoisoindolin-2-yl)piperidine-2,6-dione], in test [1], the DC50 was under 10 nM. Besides, the Dmax in test [1] is over 90%. For the same molecule, the IC50 in test [2] was 1000 to 10000 nM; in test [3], under 1000 nM.

For `Nc1ncnc2c1c(-c1ccc(Oc3ccccc3)cc1)nn2C1CCN(C2CCN(CC3CN(CC4CN(c5ccc6c(c5)C(=O)N(C5CCC(=O)NC5=O)C6=O)C4)C3)CC2)CC1` (centres unmarked) [Compound 437], in test [1], the “degradation of BTK protein” value is given as “dose-dependent degradation”, the 50% degradation concentration (DC50) lay in the range of 10 to 50 nM and the Dmax is over 90%. The IC50 in test [2] was 1000 to 10000 nM. Further, the IC50 in test [3] was 1000 to 10000 nM.

Consider `Nc1ncnc2c1c(-c1ccc(Oc3ccccc3)cc1)nn2C1CCN(C2CCN(CC3CN(CC4CN(c5ccc6c(c5)CN(C5CCC(=O)NC5=O)C6=O)C4)C3)CC2)CC1` (centres unmarked) [Compound 438, 3-(5-(3-((3-((4-(4-amino-3-(4-phenoxyphenyl)-1H-pyrazolo[3,4-d]pyrimidin-1-yl)-[1,4′-bipiperidin]-1′-yl)methyl)azetidin-1-yl)methyl)azetidin-1-yl)-1-oxoisoindolin-2-yl)piperidin-2,6-dione], for which, in test [1], the DC50 fell in the range of 10 to 50 nM. Besides, the Dmax in test [1] is over 90%. The IC50 in test [2] and in test [3] was 1000 to 10000 nM throughout.
